Laboratory results: the supplement of paper PMC11451515

Tested on: SEM cells
Assay: cell viability relative to DMSO control; higher = less cytotoxic
Conditions: 48 h
In short: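 Viability is expressed as a percentage of DMSO wells within each plate, and cell-free wells serve as background. Seeding densities in the 1536-well plates (5 μl) were 500 cells/well for NOMO1 or SEM leukemia cells and 1000 cells/well for P12-Ichikawa. Each line was adapted for at least four passages in each medium. Library compounds in DMSO were pin-dosed at 47 μM to 0.79 nM (11 points, threefold), and CellTiter-Glo One luminescence was read after 48 h at 37°C.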

Structure (SMILES): COc1cccc(Nc2c(C(N)=O)cnc3c(C)cc([S+](=O)([O-])c4cccc(C(=O)N(C)C)c4)cc23)c1
- cell viability (HPLM + 10% dialyzed FBS, 0.000781 µM): 119%
- cell viability (HPLM + 10% dialyzed FBS, 0.00234 µM): 113%
- cell viability (HPLM + 10% dialyzed FBS, 0.00702 µM): 134%
- cell viability (HPLM + 10% dialyzed FBS, 0.0211 µM): 130%
- cell viability (HPLM + 10% dialyzed FBS, 0.0632 µM): 114%
- cell viability (HPLM + 10% dialyzed FBS, 0.19 µM): 128%
- cell viability (HPLM + 10% dialyzed FBS, 0.569 µM): 144%
- cell viability (HPLM + 10% dialyzed FBS, 1.71 µM): 126%
- cell viability (HPLM + 10% dialyzed FBS, 5.12 µM): 128%
- cell viability (HPLM + 10% dialyzed FBS, 15.4 µM): 134%
- cell viability (HPLM + 10% dialyzed FBS, 46.1 µM): 126%
- cell viability (RPMI 5 mM glucose + 10% FBS, 0.000781 µM): 124%
- cell viability (RPMI 5 mM glucose + 10% FBS, 0.00234 µM): 123%
- cell viability (RPMI 5 mM glucose + 10% FBS, 0.00702 µM): 123%
- cell viability (RPMI 5 mM glucose + 10% FBS, 0.0211 µM): 136%
- cell viability (RPMI 5 mM glucose + 10% FBS, 0.0632 µM): 141%
- cell viability (RPMI 5 mM glucose + 10% FBS, 0.19 µM): 137%
- cell viability (RPMI 5 mM glucose + 10% FBS, 0.569 µM): 142%
- cell viability (RPMI 5 mM glucose + 10% FBS, 1.71 µM): 134%
- cell viability (RPMI 5 mM glucose + 10% FBS, 5.12 µM): 138%
- cell viability (RPMI 5 mM glucose + 10% FBS, 15.4 µM): 137%
- cell viability (RPMI 5 mM glucose + 10% FBS, 46.1 µM): 119%
- cell viability (RPMI 5 mM glucose + 10% dialyzed FBS, 0.000781 µM): 123%
- cell viability (RPMI 5 mM glucose + 10% dialyzed FBS, 0.00234 µM): 130%
- cell viability (RPMI 5 mM glucose + 10% dialyzed FBS, 0.00702 µM): 119%
- cell viability (RPMI 5 mM glucose + 10% dialyzed FBS, 0.0211 µM): 129%
- cell viability (RPMI 5 mM glucose + 10% dialyzed FBS, 0.0632 µM): 150%
- cell viability (RPMI 5 mM glucose + 10% dialyzed FBS, 0.19 µM): 142%
- cell viability (RPMI 5 mM glucose + 10% dialyzed FBS, 0.569 µM): 158%
- cell viability (RPMI 5 mM glucose + 10% dialyzed FBS, 1.71 µM): 146%
- cell viability (RPMI 5 mM glucose + 10% dialyzed FBS, 5.12 µM): 135%
- cell viability (RPMI 5 mM glucose + 10% dialyzed FBS, 15.4 µM): 128%
- cell viability (RPMI 5 mM glucose + 10% dialyzed FBS, 46.1 µM): 118%
